In ChEMBL document CHEMBL1201862, “PubChem BioAssay data set” (2004):
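Protocol summary: plate cells (96-well), add compound at 5 concentrations, incubate 48 h, interpolate endpoints linearly. GI50 is the concentration that inhibits growth by half.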 Activity calls are given as the source filed them. No stated cut-off is given here; in the data, active = GI50 up to about 1.1 µM and inactive = higher.

What was measured:
Experiment in all cases: inhibition of tumour cell growth, NCI panel, 48 h
HOP-92 = test system: HOP-92
MOLT-4 = test system: MOLT-4
SNB-19 = test system: SNB-19
UO-31 = test system: UO-31
U-251 = test system: U-251
786-0 = test system: 786-0
LOX IMVI = test system: LOX IMVI
HL-60 = test system: HL-60
NCI-H226 = test system: NCI-H226
SR = test system: SR
T47D = test system: T47D
CAKI-1 = test system: CAKI-1
NCI-H460 = test system: NCI-H460
HCT-116 = test system: HCT-116
PC-3 = test system: PC-3
HCT-15 = test system: HCT-15
A549 = test system: A549
SK-MEL-2 = test system: SK-MEL-2
MDA-N = test system: MDA-N

Row | Compound | GI50 (HOP-92) | GI50 (MOLT-4) | GI50 (SNB-19) | GI50 (UO-31) | GI50 (U-251) | GI50 (786-0) | GI50 (LOX IMVI) | GI50 (HL-60) | GI50 (NCI-H226) | GI50 (SR) | GI50 (T47D) | GI50 (CAKI-1) | GI50 (NCI-H460) | GI50 (HCT-116) | GI50 (PC-3) | GI50 (HCT-15) | GI50 (A549) | GI50 (SK-MEL-2) | GI50 (MDA-N)
1 | CNC(=O)OC(C)CN1c2ccccc2Sc2ccccc21 (stereo unspecified) | 76.9 µM (inactive) | 19.1 µM (inactive) | > 100 µM (inactive) | > 100 µM (inactive) | > 100 µM (inactive) | 64.6 µM (inactive) | 75.2 µM (inactive) | 7.69 µM (inactive) | > 100 µM (inactive) | 86.3 µM (inactive) | > 100 µM (inactive) | > 100 µM (inactive) | 57.3 µM (inactive) | 57.5 µM (inactive) | 8.63 µM (inactive) | 32.1 µM | 86.3 µM (inactive) | – | –
2 | CCOC(=O)c1ccc(/N=C/C=C(\Nc2ccc(C(=O)OCC)cc2)c2ccc3ccccc3c2)cc1 | 78 µM (inactive) | 3.97 µM (inactive) | 36.2 µM (inactive) | 40.8 µM (inactive) | 32.8 µM (inactive) | 23.3 µM (inactive) | 15.7 µM (inactive) | 25.4 µM (inactive) | 34 µM (inactive) | 20.3 µM (inactive) | 13.9 µM (inactive) | 25 µM (inactive) | 25.8 µM (inactive) | 31.4 µM (inactive) | 31.3 µM (inactive) | 20.7 µM | 34.5 µM (inactive) | 23.5 µM (inactive) | –
3 | NCCN1CC2CCC(CC2)C1 | – | > 10 µM (inactive) | > 10 µM (inactive) | > 10 µM (inactive) | > 10 µM (inactive) | > 10 µM (inactive) | > 10 µM (inactive) | > 10 µM (inactive) | > 10 µM (inactive) | > 10 µM (inactive) | > 10 µM (inactive) | > 10 µM (inactive) | > 10 µM (inactive) | > 10 µM (inactive) | > 10 µM (inactive) | > 10 µM | > 10 µM (inactive) | > 10 µM (inactive) | –
4 | COc1ccc(CNc2nc(NCc3ccc(OC)cc3)nc(N3CCOCC3)n2)cc1 | 22.8 µM (inactive) | 2.88 µM (inactive) | 6.31 µM (inactive) | 62.8 µM (inactive) | 4.43 µM (inactive) | 5.25 µM (inactive) | – | 2.74 µM (inactive) | 19.2 µM (inactive) | 2.79 µM (inactive) | 9.84 µM (inactive) | 2.71 µM (inactive) | 4.23 µM (inactive) | 4.49 µM (inactive) | 4.05 µM (inactive) | 2.29 µM | 7.13 µM (inactive) | > 100 µM (inactive) | –
5 | O=C(NCCN1CCOCC1)c1ccc(I)cc1 | – | > 100 µM (inactive) | > 100 µM (inactive) | > 100 µM (inactive) | > 100 µM (inactive) | > 100 µM (inactive) | > 100 µM (inactive) | > 100 µM (inactive) | > 100 µM (inactive) | > 100 µM (inactive) | – | > 100 µM (inactive) | > 100 µM (inactive) | – | > 100 µM (inactive) | > 100 µM | > 100 µM (inactive) | – | –
6 | CCOC(=O)CC(=O)Nc1c(C(=O)OCC)sc2nc(SC)nc(Nc3ccc(OC)c(OC)c3)c12 | 9.25 µM (inactive) | – | – | > 100 µM (inactive) | 6.4 µM (inactive) | 6.22 µM (inactive) | 39.4 µM (inactive) | > 100 µM (inactive) | 75.2 µM (inactive) | – | – | 64 µM (inactive) | – | 39.4 µM (inactive) | > 100 µM (inactive) | 39.9 µM | 0.36 µM (active) | 25.6 µM (inactive) | > 100 µM (inactive)
7 | COC(=O)CNC(=O)C(CSC(=O)OCC1c2ccccc2-c2ccccc21)NC(=O)CCC(NC(=O)OCC1c2ccccc2-c2ccccc21)C(=O)OC (stereo unspecified) | 13.5 µM (inactive) | 21.2 µM (inactive) | 23.8 µM (inactive) | 18.7 µM (inactive) | – | 13.7 µM (inactive) | 3.27 µM (inactive) | 19.1 µM (inactive) | 99.1 µM (inactive) | 12.6 µM (inactive) | – | 7.5 µM (inactive) | 24.4 µM (inactive) | 17.5 µM (inactive) | 30.8 µM (inactive) | 28 µM | 14.5 µM (inactive) | 16.9 µM (inactive) | 18.8 µM (inactive)
8 | N/C(=N\n1c(=S)[nH]c2ccccc2c1=O)Nn1c(=S)[nH]c2ccccc2c1=O | – | 11.4 µM (inactive) | 88.3 µM (inactive) | 14.3 µM (inactive) | 27.9 µM (inactive) | 15.3 µM (inactive) | 18.8 µM (inactive) | – | 21.7 µM (inactive) | 20.3 µM (inactive) | 23.4 µM (inactive) | 13.2 µM (inactive) | 44.1 µM (inactive) | 16.8 µM (inactive) | 51.8 µM (inactive) | 22.6 µM | > 100 µM (inactive) | 46.6 µM (inactive) | 24.7 µM (inactive)
9 | CCCCCCCCCN1CCC(=O)C(C(=O)OC)C1 (stereo unspecified) | 17.7 µM (inactive) | 13.6 µM (inactive) | – | 10.3 µM (inactive) | – | 16.9 µM (inactive) | 12.5 µM (inactive) | 1.53 µM (inactive) | 12.9 µM (inactive) | 3.86 µM (inactive) | 10.4 µM (inactive) | 15.6 µM (inactive) | 17.6 µM (inactive) | 13.9 µM (inactive) | – | 13.4 µM | 16.6 µM (inactive) | – | 16 µM (inactive)
